Source: patent US9701709B2 (REATA PHARMACEUTICALS, INC., priority 2012, dated 2017)
Read-outs that look alike come from different tables or passages of the source.

Key:
[1] = test system: human NQO1 ARE (Nrf2) in HuH-7 human hepatoma cells; experiment: NQO1-ARE luciferase reporter in HuH-7; type: cell-based; settings: for Concentration required to increase transcription from the NQO1 ARE by 2-fold: HuH-7, 18 h
Text: The first luciferase reporter tested was under the control of a single ARE derived from the promoter of the human NQO1 gene, which allows for quantitative assessment of the endogenous activity of the Nrf2 transcription factor in cultured mammalian cells. […] The NQO1-ARE-luciferase reporter plasmid was constructed by inserting the human NQO1-ARE ([NT] ID NO: 31) into the pLuc-MCS vector using HindIII/XhoI cloning sites (GenScript Corp., Piscataway, N.J.). […] Firefly and Renilla luciferase activity was assayed by Dual-Glo Luciferase Assay (cat # E2920, Promega), and the luminescence signal was measured on an L-Max II luminometer (Molecular Devices). Firefly luciferase activity was normalized to the Renilla activity, and fold induction over a vehicle control (DMSO) of normalized Firefly activity was calculated. […] Values represent the average of three independent experiments.

[2] = test system: NF-κB in NIH3T3/NF-κB-luc cell line; experiment: NF-κB luciferase reporter in NIH3T3/NF-κB-luc; type: cell-based; settings: Mus musculus
Text: (b) TNF-α-induced activation of an NF-κB luciferase reporter in the mouse NIH3T3 cell line.
(§1) NF-κB is a transcription factor that plays a central role in the regulation of many immune and inflammatory responses. […] The NIH3T3/NF-κB-luc cell line maintains a chromosomal integration of a Firefly luciferase reporter construct regulated by eight copies of the NF-κB response element. The effects of these compounds can be quantified by measuring the value of the NF-κB IC50.

[3] = test system: TNF-α-induced NF-κB activation in A549/NF-κB-Luc cells; experiment: TNF-α-induced NF-κB luciferase reporter in A549/NF-κB-Luc; type: cell-based; settings: Homo sapiens
Text: (b) TNF-α-induced activation of an NF-κB luciferase reporter in the human A549 cell line.
as §1

[4] = biological target: MRP-1 (Homo sapiens, UniProt P33527); experiment: in vitro; settings: not told
Chain of MRP-1 (P33527 whole entry): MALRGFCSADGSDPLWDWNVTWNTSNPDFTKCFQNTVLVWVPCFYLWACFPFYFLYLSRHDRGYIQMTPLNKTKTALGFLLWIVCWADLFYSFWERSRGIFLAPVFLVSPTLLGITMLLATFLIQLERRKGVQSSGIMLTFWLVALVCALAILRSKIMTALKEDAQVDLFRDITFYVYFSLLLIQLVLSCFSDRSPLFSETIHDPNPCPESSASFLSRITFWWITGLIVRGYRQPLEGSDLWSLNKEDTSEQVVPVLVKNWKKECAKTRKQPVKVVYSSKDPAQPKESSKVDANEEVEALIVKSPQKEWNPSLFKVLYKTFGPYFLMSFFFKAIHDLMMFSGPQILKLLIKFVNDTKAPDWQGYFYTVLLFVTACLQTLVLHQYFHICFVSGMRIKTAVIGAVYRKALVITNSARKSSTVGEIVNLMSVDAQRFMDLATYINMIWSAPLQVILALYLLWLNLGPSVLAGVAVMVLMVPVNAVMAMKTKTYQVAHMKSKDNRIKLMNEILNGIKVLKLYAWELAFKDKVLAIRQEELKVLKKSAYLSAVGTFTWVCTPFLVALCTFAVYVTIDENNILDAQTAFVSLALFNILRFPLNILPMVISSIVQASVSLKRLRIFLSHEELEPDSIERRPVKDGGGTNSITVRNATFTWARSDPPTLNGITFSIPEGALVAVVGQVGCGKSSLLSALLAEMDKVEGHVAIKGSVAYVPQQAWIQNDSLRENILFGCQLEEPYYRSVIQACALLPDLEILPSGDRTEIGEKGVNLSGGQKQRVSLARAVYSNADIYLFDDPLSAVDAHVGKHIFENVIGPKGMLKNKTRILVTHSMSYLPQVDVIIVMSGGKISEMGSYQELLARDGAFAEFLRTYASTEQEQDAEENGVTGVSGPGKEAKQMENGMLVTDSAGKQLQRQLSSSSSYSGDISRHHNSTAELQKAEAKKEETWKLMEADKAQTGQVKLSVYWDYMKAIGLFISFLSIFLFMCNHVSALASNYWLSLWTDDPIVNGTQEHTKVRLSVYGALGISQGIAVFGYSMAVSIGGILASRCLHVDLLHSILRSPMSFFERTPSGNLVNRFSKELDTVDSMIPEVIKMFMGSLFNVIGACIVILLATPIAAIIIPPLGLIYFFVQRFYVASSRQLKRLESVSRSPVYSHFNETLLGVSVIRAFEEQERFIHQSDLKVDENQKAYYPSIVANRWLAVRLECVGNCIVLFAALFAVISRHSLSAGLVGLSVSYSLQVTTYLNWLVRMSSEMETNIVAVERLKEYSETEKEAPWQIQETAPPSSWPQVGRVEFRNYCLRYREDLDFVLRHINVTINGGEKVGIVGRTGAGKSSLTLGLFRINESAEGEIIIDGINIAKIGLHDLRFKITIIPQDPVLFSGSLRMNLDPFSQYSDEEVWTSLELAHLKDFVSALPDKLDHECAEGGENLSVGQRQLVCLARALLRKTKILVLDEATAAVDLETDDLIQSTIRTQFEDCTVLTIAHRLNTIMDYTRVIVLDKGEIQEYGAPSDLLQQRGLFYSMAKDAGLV

[5] = test system: rat GSTA2 ARE (Nrf2) in AREc32 reporter cell line; experiment: GSTA2-ARE luciferase reporter in AREc32; settings: 4-fold GSTA2-ARE induction
[6] = test system: LPS-induced NO (plasma NOx, Griess Reaction); experiment: Suppression of NO in vivo after LPS in CD-1 mice; design: species or system mouse; settings: LPS 5 mg/kg 24 h later
Procedure: FIG. 51—Dose-dependent suppression of NO in vivo by 63415. CD-1 mice (n=6) were dosed with DMSO or […] by oral gavage. LPS (5 mg/kg) was administered 24 h later. Twenty-four hours after LPS administration, whole blood was collected for NO assay. NO inhibition was determined by Griess Reaction from reduced, de-proteinated plasma.

[7] = Distribution into mouse tissues after PO QD×3; type: in vivo; settings: mice PO QD×3 25 mg/kg, 6 h after last dose, semi-quantitative
Procedure: Semi-quantitative analysis of drug content was performed.

[8] = test system: NQO1 activity; experiment: NQO1 activity induction in mouse liver, lung, and kidney after PO QD×3; type: in vivo; settings: mice PO QD×3 25 mg/kg, 6 h after last dose
Procedure: FIG. 53—NQO1 activity induction in mouse liver, lung, and kidney by 63415. Mice were dosed PO QD×3 with 25 mg/kg. Tissues were collected 6 h after the last dose, and analysis of NQO1 activity was performed.

[9] = Dynamic vapor sorption (hygroscopicity); type: physicochemical
Procedure: Projekt Messtechnik Sorptions Prüfsystem SPS 11-100n or Surface Measurement Systems DVS-1. The sample was placed on an aluminum or platinum holder on top of a microbalance and allowed to equilibrate for 2 h at 50% r.h. before starting the pre-defined humidity program: • (1) 50→0% r.h. (5%/h); 5 h at 0% r.h. • (2) 0→95% r.h. (5%/h); 5 h at 95% r.h. • (3) 95→50% r.h. (5%/h); 2 h at 50% r.h.

[10] = Polymorph screen: crystallization and drying experiments (FT-Raman, PXRD, TG-FTIR, DSC); type: physicochemical
Procedure: A preformulation and polymorphism study was performed for compound 63415. […] A total of 30 crystallization experiments, including phase equilibrations, drying experiments and other techniques, were carried out. All obtained solids were characterized by FT-Raman spectroscopy. All new forms were characterized by PXRD and TG-FTIR, and optionally by DSC and DVS.
All obtained materials were characterized by FT-Raman spectroscopy; selected samples were also characterized by PXRD.
Suspension equilibration experiments were carried out in one solvent and eleven solvent mixtures (Table 13). Suspensions of ˜100 mg of PP415-P1 in 0.2-2.0 mL of the selected solvents were prepared and shaken for 4-15 days at 22-24° C. The solids were recovered and characterized by FT-Raman spectroscopy; most were characterized also by PXRD.
Hot solutions of PP415-P1 were prepared in one solvent and four solvent mixtures (Table 14). […] In two cases (-P22, -P23) no solid precipitated, even after storage at 4-5° C. for two days. Here, the solvent was evaporated under N2 flow at r.t. The solids were recovered and characterized by FT-Raman spectroscopy and for those with spectra different from the amorphous starting material, FT-Raman class 1, also by PXRD.
Clear solutions of PP415-P1 were prepared in three solvent mixtures (Table 15). The solvents were then slowly evaporated at r.t. under ambient conditions. However, in two of the three experiments (-P15 and -P17) white solid precipitated before evaporation began. The obtained solids were examined by FT-Raman spectroscopy and PXRD.
At least one sample of each class was dried under vacuum with the aim to desolvate the solvates and to obtain non-solvated crystalline forms of 63415 (Table 16). The dried materials were characterized further by FT-Raman, PXRD, and TG-FTIR.
Bruker RFS100 with OPUS 6.5 software; Nd:YAG 1064-nm excitation, Ge detector, 3500-100 cm^−1 range; typical measurement conditions: 100-300 mW nominal laser power, 64-128 scans, 2 cm^−1 resolution.
Stoe Stadi P; Mythen1K Detector; Cu—Kα radiation; standard measurement conditions: transmission; 40 kV and 40 mA tube power; curved Ge monochromator; 0.02°2θ step size, 12 s or 60 s step time, 1.5-50.5°2θ or 1.0-55°2θ scanning range; detector mode: step scan; 1°2θ or 6°2θ detector step; standard sample preparation: 10 to 20 mg sample was placed between two acetate foils; sample holder: Stoe transmission sample holder; the sample was rotated during the measurement.
Netzsch Thermo-Microbalance TG 209 with Bruker FT-IR Spectrometer Vector 22; aluminum crucible (with microhole), N2 atmosphere, 10 K/min heating rate, 25-250° C. or 25-350° C. range.
Perkin Elmer DSC 7; gold crucibles (closed or with microhole), sample filled in an N2 environment, 10 K/min heating rate, −50 to 250° C. or 350° C. range, at times quench cooling (at −200 K/min) to −50° C. between scans.

[11] = not viability normalized, read-out: NIH3T3/NF-κB IC50
[12] = viability normalized, read-out: NIH3T3/NF-κB IC50, normalized for viability
[13] = not viability normalized, read-out: NF-κB IC50, human A549 cell line (further experimentation)
[14] = read-out: NF-κB IC50, human A549 cell line, viability normalized

Compound | Concentration required to increase transcription from the NQO1 ARE by 2-fold [1] | IC50 [2, 11] | IC50 [2, 12] | IC50 [3, 13] | IC50 [3, 14] | efflux ratio [4] | Fold increase in amount of compound needed compared to RTA 402 for the same activity [5] | other results
CC(=O)N[C@]12CCC(C)(C)C[C@H]1[C@H]1C(=O)C=C3[C@@]4(C)C=C(C#N)C(=O)C(C)(C)[C@@H]4CC[C@@]3(C)[C@]1(C)CC2 [Compound 63170] | 25.2 nM | 1.1 µM | 1.1 µM | 1 µM | 1.1 µM | 10 | 3.40 fold | 
CC1(C)CC[C@]2(NC(=O)C(F)(F)F)CC[C@]3(C)[C@H](C(=O)C=C4[C@@]5(C)C=C(C#N)C(=O)C(C)(C)[C@@H]5CC[C@]43C)[C@@H]2C1 [Compound 63171] |  | 1.7 µM | 1.8 µM | 2 µM | 2.1 µM | 11.2 | 2.65 fold | 
CC1(C)CC[C@]2(NC(=O)CC(F)(F)F)CC[C@]3(C)[C@H](C(=O)C=C4[C@@]5(C)C=C(C#N)C(=O)C(C)(C)[C@@H]5CC[C@]43C)[C@@H]2C1 [Compound 63179] | 29.1 nM | 0.2 µM | 0.6 µM | 1.4 µM | 1.5 µM | 56.5 | 6.05 fold | 
CCC(=O)N[C@]12CCC(C)(C)C[C@H]1[C@H]1C(=O)C=C3[C@@]4(C)C=C(C#N)C(=O)C(C)(C)[C@@H]4CC[C@@]3(C)[C@]1(C)CC2 [Compound 63189] | 14.9 nM | 1.1 µM | 1 µM | 1.1 µM | 1.2 µM | 57.1 | 3.47 fold | 
CC1(C)CC[C@]2(CO)CC[C@]3(C)[C@H](C(=O)C=C4[C@@]5(C)C=C(C#N)C(=O)C(C)(C)[C@@H]5CC[C@]43C)[C@@H]2C1 [Compound 63355] |  |  |  |  |  |  |  | NQO1-ARE (fold at 62.5 nM in HuH7) ([1]; 62.5 nM): 6.5 ± 0.9 fold
CCNC(=O)[C@]12CCC(C)(C)C[C@H]1[C@H]1C(=O)C=C3[C@@]4(C)C=C(C#N)C(=O)C(C)(C)[C@@H]4CC[C@@]3(C)[C@]1(C)CC2 [RTA 405, reference compound] |  |  |  |  |  |  |  | NOx Levels (% vs LPS Controls) ([6]; 13 mg/kg oral gavage): 44%; NOx Levels (% vs LPS Controls) ([6]; 25 mg/kg oral gavage): 26%; NOx Levels (% vs LPS Controls) ([6]; 50 mg/kg oral gavage): 18%; concentration at 6 h ([7]; brain, read-out: Drug content, Brain): 93 nM; concentration at 6 h ([7]; kidney, read-out: Drug content, Kidney): 2360 nM; concentration at 6 h ([7]; liver, read-out: Drug content, Liver): 1140 nM; concentration at 6 h ([7]; lung, read-out: Drug content, Lung): 1630 nM; concentration at 6 h ([7]; plasma, read-out: Drug content, Plasma): 130 nM; concentration at 6 h ([7]; whole blood, read-out: Drug content, Whole Blood): 1160 nM; NQO1 activity induction, Kidney [8]: 8.25; NQO1 activity induction, Liver [8]: 1.93; NQO1 activity induction, Lung [8]: 1.48
CC1(C)CC[C@]2(NC(=O)C(C)(F)F)CC[C@]3(C)[C@H](C(=O)C=C4[C@@]5(C)C=C(C#N)C(=O)C(C)(C)[C@@H]5CC[C@]43C)[C@@H]2C1 [desolvated class 4] |  |  |  |  |  |  |  | DVS: hygroscopicity class [9]: DVS: slightly hygroscopic; Δm = (mass increase <2% but ≧0.2%); DVS: total mass gain from 0% r.h. to 95% r.h. ([9]; 0% r.h. to 95% r.h.): mass gain of 2.1 wt.-% from 0%; DVS: Δm (50%→85% r.h.) ([9]; 50%→85% r.h., listed as PP415-P37): +0.7% (50%→85% r.h.); total; post-DVS Raman and/or PXRD: solid form ([9]; after DVS, listed as PP415-P37): to class 4; Hygroscopicity classification (DVS) ([9]; mass gain at 85% r.h.): slightly hygroscopic (mass increase <2% but ≧0.2%); DSC: no decomposition up to [10]: no decomposition up to 270 °C; TG-FTIR: mass loss (solvent) ([10]; first or main loss, solvent and temperature range per sample as printed): TG-FTIR: loss of ~0.9 wt.-%; TG-FTIR: decomposition at T ([10]; listed as PP415-P37): decomposition at T > 280 °C
